Each structure is given as a SMILES string. “And” between values parts separate entries of the source, which are not always exact repeats. Identical values can stand only once. Like-named read-outs stand apart in the source and are kept apart here.

Data set [1] concerns Pseudokirchneriella subcapitata. The data set is described as follows: Green alga total chlorophyll (a+b) analysis. Format: cell-based. As to the method:
Control group (panel A) received only growth medium (100 mL). Chlorophylls (a and b) were extracted using a 95% ethanol method and measured using an UV-Vis spectrophotometer (Hach DR6000). Each treatment received 1.2×10^6 cells/mL on day-0 and were allowed to grow until day-28 when the experiments were halted. Chlorophylls were recorded on day-7 (acute), day-14 and day-28 (chronic).
(§1) 1.a. […] Experiments were repeated twice for NoPest-Ag5, Ag+ ions and control groups, and data were combined. Algae were cultured in an Erlenmeyer flask with 100 mL growth media using a16:8 h day:night cycle at 25±2° C. under the LED lighting of 4830 lux. Microscopic analysis coupled with hemocytometer was used to measure cell growth, and total chlorophyll (chlorophyll [a+b]) was used to measure primary productivity, in algae.
1.b. Chlorophyll analysis: Chlorophylls (a and b) were extracted using 95% ethanol method, measured using UV-Vis spectrophotometer (Hach DR6000), and reported as total chlorophyll (a+b).

For data set [2] the test system is unchanged. The data set is described as follows: Green alga cell growth (cell count). Format: cell-based. As for the experimental part: Control group (panel A) received only growth medium (100 mL). Each treatment received 1.2×10^6 cells/mL on day-0 and were allowed to grow until day-28 when the experiments were halted. Cell count was recorded on day-7 (acute), day-14 and day-28 (chronic).
as §1

The subject of data set [3] is Daphnia magna. The experiment in a line: Daphnia magna chronic 21-day reproduction test. Format: in vivo. The source says:
FIG. 23 depicts a Daphnia magna 21-day (chronic) reproduction test.
This mirrors OECD 202, Daphnia sp. Reproduction Test.

For another data set, the system named is Soybean seeds. The data set is described as follows: Soybean seedling biomass. Format: in vivo, Glycine max. The note with it: 0.2-50 mg/L, day-7. The source says:
FIG. 13 depicts the effect of exposure to NH2—AgNPs on soybean seedling biomass.

In another data set the test system is soybean seed. The experiment in a line: Soybean seed germination. The note with it: 0.25-50 mg/L, 7 days.
For a further data set, the system named is Corn (Zea mays) seeds. The experiment in a line: Corn seed germination. Particulars: 0.25-50 mg/L, 7 days.
The test system of data set [4] is E. coli DH5α. The experiment in a line: Surface interaction with bacterial cells (imaging). Format: cell-based, Escherichia coli. The note with it: 10 mg/L (as total Ag), 72 h. As to the method: (§2) FIG. 8 depicts the antimicrobial effects of positively charged NH2—AgNPs compared with carboxylate/citrate AgNPs (cit-AgNPs) and Ag^+ ions on E. coli DH5α and K12 growth (panel A), and the effects of the surface interaction of 10 mg/L (equivalent to 10 ppm) NH2—AgNPs compared with the effects of the surface interaction of Cit-AgNPs and Ag^+ ions on E. coli DH5α (panel B).

Data set [5] has as its system E. coli DH5α. The experiment in a line: Antimicrobial growth curves. Format: cell-based, Escherichia coli. The note with it: 10 ppm. As to the method:
as §2

Another data set has as its system E. coli K12. The experiment in a line: Antimicrobial growth curves. Format: cell-based, Escherichia coli. Particulars: 10 ppm. As for the experimental part:
as §2

The subject of data set [6] is Daphnia magna. The experiment in a line: Daphnia magna acute 48-hour survival test. As to the method:
FIG. 22 depicts a Daphnia magna 48-hour (acute) toxicity test.
This mirrors OECD 202, Daphnia sp. Reproduction Test. […] Daphnia were cultured in a beaker (500 mL) using 16:8 h day:night cycle at 20±2° C. under the diffused cool LED lighting.

The test system of data set [7] is honeybee, Apis mellifera L. The data set is described as follows: Honeybee 48-hour oral exposure test (OECD 213). Format: in vivo. Particulars: for 48-hour Mortality: per replicate of 10 bees; for Consumption after 6 hours: Consumed: per replicate, 200 μL provided. As for the experimental part: (§3) Pollinators, especially honeybees, are susceptible to certain insecticides. Understanding the susceptibility of honeybees will determine the test substance's safe use in the environment as well as when the product should be used in relation to honeybee activity.
Honeybee 48-hour Oral Exposure Test: Oral exposure followed OECD Test 213 method. […] The test included nominal test item doses ranging from 1 to 400 ng a.i./bee (ppt a.i./bee) and a concurrent negative control group. Additional groups of bees from the same source were dosed with imidacloprid, at 0.0013, 0.0032 and 0.008 μg a.i./bee (ppb a.i./bee) as a positive control substance, also conducted concurrently. Three replicate test chambers were maintained in each control and treatment group, with 10 bees in each test chamber. Observations of mortality and other signs of toxicity were made for approximately 48 hours after dosing. Cumulative mortality observed in the test groups was used to determine the LD50 (lethal dose that kills 50% of the test populations).

Data set [8] relates to honeybee, Apis mellifera L. The data set is described as follows: Honeybee 48-hour contact (dermal) exposure test (OECD 214). Format: in vivo. Particulars: for 48-hour Mortality: per replicate of 10 bees, listed as Positive Control. As to the method:
as §3
Honeybee 48-hour Contact (Dermal) Exposure Test Contact exposure followed OECD Test 214 method. Young adult worker honeybees were exposed to six test doses ranging from 0.1 to 40 ng a.i./bee administered topically to the dorsal side of the thorax of each bee in a 2 μL droplet of water containing 1% Tween 80 surfactant. A negative control group and a surfactant control group were maintained concurrently. Additional groups of bees from the same source were nominally dosed with imidacloprid, at 0.032, 0.08 and 0.2 μg a.i./bee as a positive control substance. The positive control test was conducted concurrently with the definitive test and the bees were administered topically to the dorsal side of the thorax of each bee in a 2.0 μL droplet with water containing […] surfactant. Three replicate test chambers were maintained in each control and treatment group, with 10 bees in each test chamber. Observations of mortality and other signs of toxicity were made for approximately 48 hours after dosing. Cumulative mortality observed in the test groups was used to determine the LD50.

The subject of data set [9] is honeybee, Apis mellifera L. The description is as above. Format: in vivo. Particulars: 0.008 μg a.i./bee [4 mg a.i./L], per replicate of 10 bees, listed as Positive Control.
The mark [10] stands for this setting: 0.0013 μg a.i./bee [0.0065 mg a.i./L].
Where [11] appears, read: 0.0032 μg a.i./bee [0.016 mg a.i./L].
Where [12] appears, read: 0.0032 μg a.i./bee [0.016 mg a.i./L], listed as Positive Control.
[13] abbreviates: 0.008 μg a.i./bee [0.04 mg a.i./L].
Setting [14] is: 0.008 μg a.i./bee [0.04 mg a.i./L], listed as Positive Control.
Where [15] appears, read: 0.032 μg a.i./bee [16 mg a.i./L].
Where [16] appears, read: 0.2 μg a.i./bee [100 mg a.i./L].

With `[Cd+2]` [Cd^2+ ions], the Chlorophyll synthesis entry in data set [1] (0.05-0.75 mg/L) is on record as “chlorophyll synthesis did occur”. Moreover, the “Chlorophyll synthesis compared to control” value in data set [1] (at or above 1 mg/L) is “inhibited chlorophyll synthesis”. In data set [2] (0.5 mg/L), the “Algal growth compared to control (cell count)” value is on record as “stimulatory”. Moreover, the “Algal toxicity (cell count)” value in data set [2] (at or above 0.75 mg/L) was “toxicity of Cd^2+ ions increased”.

With `[Ag+]` [Ag^+ ions], in the data set with Daphnia magna [3] (0.01 mg/L), the “Mean decrease in reproduction” value worked out at 6.6%. In the data set with Daphnia magna [3] (concentrations except 0.01 mg/L), the “Mean increase in reproduction” value is listed as 126.6-1120%. Moreover, in the data set with Soybean seeds, the “Seedling biomass compared to control (water only)” value was “promoted seedling biomass”. Further, the “Toxicity in germination of soybean” value in the data set with soybean seed is listed as “non-toxic”. Also, the “Toxicity by total chlorophyll” value in data set [1] (10 mg/L) is “less toxic compared to NoPest-Ag5”. The “Toxicity in germination of corn” value in the data set on Corn (Zea mays) seeds was “non-toxic”. In data set [2], the “Comparative toxicity of all four test compounds (cell count)” value is “most toxic”. Moreover, the “Algal growth compared to control (cell count)” value in data set [2] (at or above 1 mg/L) is “inhibited algal growth”. For the same compound, the “Cell integrity after surface interaction” value in the data set with E. coli DH5α [4] is given as “intact cells were observed, but with a shape change to a hexagonal honeycomb like phenotype lacking adherent fimbriae”. For the same compound, the “Nature of effect based on growth curves” value with E. coli DH5α [5] and in the data set on E. coli K12 was “bacteriostatic effects” throughout.

Take `[Cu+2]` [Cu^2+ ions]: the Mean survival in the data set with Daphnia magna [6] (0.5 mg/L) came to 0%.

For the compound `O=[N+]([O-])NC1=NCCN1Cc1ccc(Cl)nc1` [Imidacloprid], in the data set on Daphnia magna [3], the “Reproduction compared with control” value is listed as “not significantly different from control”. The “48-hour Mortality Mean” value in [7] (setting [10]) came out at 0%; in data set [7] (setting [11]), 3%; in data set [7] (setting [13]), 7%; in data set [8] (0.008 μg a.i./bee [4 mg a.i./L]), 10%; in data set [8] (setting [15]) it was 33%; in data set [8] (setting [16]), 77%. The “Consumption after 6 hours: Consumed, Mean” value was 198 µL in [7] (setting [10]), 163 µL in [7] (setting [11]) and 88 µL in [7] (setting [13]). The “48-hour Mortality” value is 0% in data set [7] (setting [10]); 0% (2×) and 10% in data set [7] (setting [12]); 0% (2×) and 20% in data set [7] (setting [14]); 40% and 10% and 50% in data set [8] (setting [15]); 70% and 100% and 60% in data set [8] (setting [16]); 0% and 20% and 10% in [9]. Further, the “Consumption after 6 hours: Consumed” value in data set [7] (0.0013 μg a.i./bee [0.0065 mg a.i./L], listed as Positive Control) is 200 μL (2×) and 195 μL; in [7] (setting [12]), 140 µL and 150 µL and 200 µL; in data set [7] (setting [14]), 85 µL and 110 µL and 70 µL. In addition, in data set [7] (48-hr, 0.0013-0.008 μg a.i./bee), the Average survival was 93%-97%. Besides, the “Appearance of surviving bees at test termination” value in data set [7] (48 hours) is on record as “appeared normal”. Further, the “Mean consumption per replicate” value in [7] (positive control groups) lay in the range of 88 to 198 µL. Moreover, the “Surviving bees that appeared lethargic” value in data set [8] (24 lethargic out of 54 surviving bees) is recorded as 46.3%. The compound also had an LD50 in data set [8] (48-hour) of 0.11 μg a.i./bee. In addition, the Average mortality in data set [8] (48-hr, positive control doses, n=30 bees per concentration) is 10%-77%. The Mean survival in the data set on Daphnia magna [6] (all concentrations tested) was 66.6-86.6%. For the same compound, the “Comparative toxicity of all four test compounds (chlorophyll)” value in [1] is “least toxic”. Further, the “Toxicity by total chlorophyll” value in [1] is on record as “generally non-toxic”. Moreover, the “Comparative toxicity of all four test compounds (cell count)” value in data set [2] is reported as “least toxic”. Also, in data set [2] (all concentrations tested), the “Algal toxicity based on cell count” value is recorded as “generally non-toxic, except at a high concentration of 100 mg/L”. The Cell growth result in [2] (by day-28) is “concentration-dependent inhibition above 1 mg/L”.

For the origin of these results see US20230057699A1, “NANOTECHNOLOGY-BASED PESTICIDES AND INTERMEDIATES, COMPOSITIONS AND TREATMENTS USING THE SAME” (priority 2020, published 2023).
